Laboratory results reported in patent publication US8481597B2, “Use of (-) (3-trihalomethylphenoxy) (4-halophenyl) acetic acid derivatives for treatment of insulin resistance, type 2 diabetes, hyperlipidemia and hyperuricemia” (Metabolex, Inc., priority 1999, dated 2013).
Where “and” joins values, the source holds several entries; their conditions need not be identical. Equal entries are not always repeated. Entries after “also recorded” stand apart in the source; their conditions may differ.

Experiments:
C57BL/6J db/db mice = assay: Prevention of diabetes and alleviation of hypertriglyceridemia in db/db mice (Example 15); format: in vivo; settings: 150 mg/kg/day in chow for 9 weeks
Protocol: Blood samples were taken at 8-10 AM once a week for 9 weeks under non-fasting condition. Food intake and body weight were measured every 1-3 days. Plasma glucose and triglyceride concentrations were determined colorimetrically using kits from Sigma Chemical Co (No. 315 and No. 339, St. Louis, Mo., USA). Plasma insulin levels were measured using RIA assay kit purchased from Linco Research (St. Charles, Mo.).

Zucker fa/fa rats [1] = assay: Short insulin tolerance test in Zucker fatty rats (Example 10); format: in vivo; settings: 50 mg/kg/day oral for 5 days
Protocol: (§1) Prior to treatment, rats were assigned to 6 groups based on body weight. Each treatment group consisted of 8 rats. […] The gavage volume was 10 ml/kg. All rats received an oral glucose challenge (1.9 g/kg) 5.5 hours after the treatment and 4 hours after withdrawal of the food. Blood samples were taken at 0, 15, 30, 60, 90, 120, and 180 minutes following the glucose challenge for plasma glucose measurement. […] On day 5, rats received the intravenous insulin (0.75 U/kg) 5.5 hours after the last dose and 4 hours after withdrawal of the food. Blood samples were taken at 3, 6, 9, 12, 15 and 18 minutes following the insulin injection for plasma glucose measurement.

C57BL/6J ob/ob mice [2] = assay: Time course of glucose-lowering after a single oral dose in diabetic ob/ob mice (Example 8); format: in vivo; settings: single oral dose 250 mg/kg; for time course of glucose-lowering, in words: 250 mg/kg
[3] = test system: oxonic acid induced hyperuricemic rats; assay: Plasma uric acid in oxonic acid induced hyperuricemic rats (Example 17); format: in vivo, SD rats; settings: oral 50 mg/kg for 3 days, 100 mg/kg on the 4th day; blood 6 hours post gavage on day 4
Source text: Male SD rats, weight 275-300 g were purchased from Charles River. […] To establish a hyperuricemic state, animals were put on a diet containing 2.5% (w/w) of oxonic acid (Sigma Chemical Co, St. Louis, Mo., USA) throughout the experiment. Oxonic acid elevates plasma uric acid by inhibiting uricase. Rats were screened for plasma uric acid levels 3 days after they were placed on the diet, and those that had extreme plasma uric acid levels were excluded. Rats were assigned to one of three groups and the mean uric acid levels were equivalent in each group. […] Oxonic acid was delivered in a liquid formulation containing 0.9% (w/v) methylcellulose. The gavage and injection volumes were 5 ml/kg. Blood samples were taken at 6 hours post oral gavage on day 4. Plasma uric acid levels were determined colorimetrically using the Infinity Uric Acid Reagent (Sigma Chemical Co, St. Louis, Mo., USA).

C57BL/6J ob/ob mice [4] = assay: Glucose and insulin lowering on daily oral administration in diabetic ob/ob mice (Example 9); format: in vivo
Protocol: The gavage volume was 10 ml/kg.

Zucker fa/fa rats [5] = assay: Oral glucose challenge in Zucker fatty rats (Example 10); format: in vivo
Protocol: as §1

cyclooxygenase 1 (COX-1) = molecular target: T1, cyclooxygenase 1 (COX-1) (Homo sapiens, UniProt P23219); assay: COX-1 inhibition in human whole blood assay, TXB2 production (Example 19); format: cell-based
T1 construct: was conducted using fresh human blood from healthy donors; endogenous in cells; host or cells: heparinized fresh human whole blood, stimulated with calcium ionophore A23187
T1 sequence (P23219 24-599): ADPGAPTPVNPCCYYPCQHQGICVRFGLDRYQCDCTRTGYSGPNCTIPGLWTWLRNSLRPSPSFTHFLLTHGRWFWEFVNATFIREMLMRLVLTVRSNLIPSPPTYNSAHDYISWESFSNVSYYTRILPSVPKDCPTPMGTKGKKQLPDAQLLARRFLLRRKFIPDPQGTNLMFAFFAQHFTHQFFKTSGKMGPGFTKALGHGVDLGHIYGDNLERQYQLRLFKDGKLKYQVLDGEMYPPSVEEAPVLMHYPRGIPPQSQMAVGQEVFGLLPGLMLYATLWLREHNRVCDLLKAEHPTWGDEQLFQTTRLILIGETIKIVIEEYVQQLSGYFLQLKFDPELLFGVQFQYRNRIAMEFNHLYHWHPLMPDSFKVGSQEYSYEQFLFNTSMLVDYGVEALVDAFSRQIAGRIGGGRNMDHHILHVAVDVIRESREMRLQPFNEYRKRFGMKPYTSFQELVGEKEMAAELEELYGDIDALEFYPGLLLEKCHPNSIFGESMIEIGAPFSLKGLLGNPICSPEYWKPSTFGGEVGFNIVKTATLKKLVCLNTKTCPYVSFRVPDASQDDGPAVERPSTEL
Protocol: An assay for cyclooxygenase 1 (COX-1) inhibition by the compounds of the present invention was conducted using fresh human blood from healthy donors. […] The enzyme was activated by the commercially available calcium ionophore A23187.
This bioassay is based on the production of thromboxane B2 (TXB2) after COX-1 activation. When activated, COX-1 generates prostaglandin H2 which is then converted to thromboxane A2 (TXA2) by thromboxane synthase and then finally to thromboxane B2 by non-enzymatic […]. In addition, PGE2 levels were measured to exclude inhibition of thromboxane synthase. This assay allows discrimination between COX-1 and thromboxane synthase inhibition.
TXB2 and PGE2 were measured by commercially available immunoassay kits purchased from Assay Designs, Inc. (Ann Arbor, Mich.). All other chemicals were from Sigma except as noted. […] Immediately before use, all compounds were diluted 1:10 in RPMI-1640 medium (Gibco BRL, 11875-093) to make a 10× concentrated stock solution. The 10×RPMI-1640 stock solutions of the calcium ionophore were prepared in an identical manner. […] COX-1 was then activated by adding 25 microliters of the 10× stock solution of 25 micromolar calcium ionophore. The plates were shaken for 10 minutes at room temperature and then incubated at 37° C. for an additional 30 minutes. After these incubation times, the plates were centrifuged at 2,000 g for 5 minutes. Two microliters of plasma were taken from each reaction for the measurement of TXB2 using an enzyme immunoassay kit from Assay Designs, Inc. The PGE2 level in the same reaction was measured using a PGE2 enzyme immunoassay kit from Assay Designs, Inc.
The results of the assay are presented as the percent inhibition of COX-1 activity.

[6] = test system: Zucker diabetic fatty (ZDF) rats; assay: Lipid lowering in Zucker Diabetic Fatty rats (Example 11); format: in vivo; settings: for plasma cholesterol, in words: Experiment I, 13 days, racemate 50 mg/kg/day, enantiomers 25 mg/kg/day; for plasma cholesterol lowering, in words / plasma triglyceride, in words: 37.5 mg/kg/day (High dose), 37.5 mg/kg/day
Protocol: Male Zucker diabetic fatty (ZDF) rats were obtained from GMI Laboratories (Indianapolis, Ind.) at 9 weeks of age. Vehicle or enantiomers of halofenate administered by oral gavage on a daily basis starting at 74 days of age. Initial blood samples were obtained for analysis one day before treatment and at the indicated times in the treatment protocol. Blood was analyzed for plasma triglyceride and cholesterol by standard techniques.

[7] = daily oral, racemate 250 mg/kg/day, enantiomers 125 and 250 mg/kg/day
[8] = Experiment II, listed as (−) enantiomer

For CC(=O)NCCOC(=O)C(Oc1cccc(C(F)(F)F)c1)c1ccc(Cl)cc1 (single isomer, unassigned; (-)) [(−) halofenate, (−) 2-acetamidoethyl 4-chlorophenyl-(3-trifluoromethylphenoxy)acetate], which “increase of plasma glucose levels with age, in words” value (C57BL/6J db/db mice) is on record?
The value was “prevented or significantly delayed”.

And the “plasma insulin concentration, in words” value (C57BL/6J db/db mice)?
The value was “maintained the plasma insulin concentration”.

What about the “plasma triglyceride concentration, in words” value (C57BL/6J db/db mice) of the same molecule?
Its value is “alleviated the increase of plasma triglyceride concentration; also recorded: alleviated hyperlipidemia”.

What about the “insulin sensitivity (slope of decline in glucose after i.v. insulin), in words” value (Zucker fa/fa rats [1]) of the same molecule?
The value was “improved significantly; also recorded: significantly more insulin sensitive”.

What about the “earliest time of plasma glucose reduction / significant activity” value (C57BL/6J ob/ob mice [2]) of the same molecule?
The value was 1.5 h.

What about the “time of peak glucose-lowering activity” value (C57BL/6J ob/ob mice [2]) of the same molecule?
Its value is 3 h.

And the “time course of glucose-lowering, in words” value (C57BL/6J ob/ob mice [2])?
The value was “more rapid onset and sustained longer”.

What about the “time course of glucose-lowering, in words” value (C57BL/6J ob/ob mice [2]; listed as (−) enantiomer) of the same molecule?
The value was “most rapid onset of action and the longest duration of action; also recorded: more effective and significantly different (p<0.05) from the (+) enantiomer at both the 3 hour and 24 hour time points”.

And the “plasma glucose at 24 hours” value (C57BL/6J ob/ob mice [2]; vehicle 408±16.2)?
The value was 217 ± 16.4 mg/dL.

What about the “plasma uric acid levels, in words” value [3] of the same molecule?
The value was “significantly reduced plasma uric acid levels”.

And the “overnight fasting plasma insulin after 5 days treatment, in words” value (C57BL/6J ob/ob mice [4]; 125 mg/kg/day oral, ob/ob mice)?
Its value is “Significantly lower plasma insulins”.

And the “time points after first dose with significantly reduced plasma insulin” value (C57BL/6J ob/ob mice [4]; 125 mg/kg/day oral, ob/ob mice)?
Its value is 27 h.

What about the “overnight fasting plasma insulin after 5 days treatment, in words” value (C57BL/6J ob/ob mice [4]; 250 mg/kg/day oral, ob/ob mice) of the same molecule?
Its value is “Significantly lower plasma insulins”.

What about the “time points after first dose with significantly reduced plasma glucose” value (C57BL/6J ob/ob mice [4]; 250 mg/kg/day oral, ob/ob mice) of the same molecule?
Its value is 3 h.

And the “time points after first dose with significantly reduced plasma insulin” value (C57BL/6J ob/ob mice [4]; 250 mg/kg/day oral, ob/ob mice)?
Its value is 27 h and 30 h.

What about the “plasma glucose following an overnight fast after 5 days treatment” value (C57BL/6J ob/ob mice [4]; 250 mg/kg/day oral, ob/ob mice, control 185.4±12.3) of the same molecule?
The value was 127.3 ± 8.0 mg/dL.

What about the “plasma glucose relative to control animals, in words” value (C57BL/6J ob/ob mice [4]; [7]) of the same molecule?
The value was “Significant decreases in glucose levels”.

What about the “plasma insulin relative to vehicle control, in words” value (C57BL/6J ob/ob mice [4]; [7]) of the same molecule?
The value was “insulins were lower”.

What about the “incremental glucose area under the curve (AUC) relative to vehicle control, in words” value (Zucker fa/fa rats [5]; racemate 100 mg/kg, enantiomers 50 and 100 mg/kg) of the same molecule?
Its value is “significant reductions in the glucose area; also recorded: Significant changes (p<0.05)”.

What about the “plasma glucose after oral glucose challenge, in words” value (Zucker fa/fa rats [5]; single oral dose 100 mg/kg 5.5 hours before challenge) of the same molecule?
The value was “greatest degree of glucose-lowering of all the treated animals”.

What about the “plasma glucose after oral glucose challenge, in words” value (Zucker fa/fa rats [5]; single oral dose 5.5 hours before challenge, racemate 100 mg/kg, enantiomers 50 and 100 mg/kg) of the same molecule?
The value was “most effective in lowering the glucose; also recorded: lower glucose levels that persisted at 90-120 minutes”.

What about the IC50 (cyclooxygenase 1 (COX-1); heparinized fresh human blood, calcium ionophore A23187, TXB2 readout, read-out: IC50, inhibition of the COX-1 enzyme in blood) of the same molecule?
Its IC50 is > 3 mM.

And the “inhibition of COX-1, in words” value (cyclooxygenase 1 (COX-1); human whole blood assay)?
Its value is “substantially weaker and ineffective inhibitor of the COX-1 enzyme; also recorded: much less effective than the racemate in inhibiting COX-1”.

What about the “plasma cholesterol, in words” value [6] of the same molecule?
The value was “significant decrease in plasma cholesterol”.

And the “plasma cholesterol, in words” value ([6]; listed as (−) enantiomer)?
Its value is “plasma cholesterol declined with treatment; also recorded: most active of the species tested”.

And the “days of treatment with significantly lower plasma cholesterol vs control” value ([6]; Experiment II, 12.5 mg/kg/day (Low dose))?
Its value is 7 days.

And the “plasma cholesterol lowering, in words” value ([6]; Experiment II)?
Its value is “much greater decline in plasma cholesterol”.

And the “plasma triglyceride, in words” value ([6]; Experiment II, listed as (−) enantiomer of halofenate)?
Its value is “greater magnitude”.

And the “plasma cholesterol lowering, in words” value [6, 8]?
The value was “greatest extent of cholesterol lowering”.

And the “plasma triglyceride, in words” value [6, 8]?
Its value is “lowest triglyceride levels of all the treatment groups; also recorded: significant lowering of plasma triglyceride”.
